Laboratory results reported in article PMC12993615 (The journal of pain, 2024).

Experiments:
[1] = Prevention of OIPN, body weight; assay type: in vivo, male Sprague Dawley rats; conditions: 10 mg/kg BID, P < .05
From the text: (§1) Pain measurements were made on Days 5/6 (when neuropathy has normally developed) and at the end of the study. […] Terminal plasma samples were taken for bioanalysis and proteomics (Somalogic). Brain regions involved in pain processing, that is, prefrontal cortex (PFC), periaqueductal grey (PAG), whole spinal cords (SC), and L4-L6 dorsal root ganglia, were collected for lipidomic and genomic (Genewiz, China) analyses.

[2] = molecular target: T1, FABP4 (Homo sapiens, UniProt P15090); assay: FABP4 binding, commercially available kit (Cayman Chemical); conditions: commercial kit
T1 construct: purchased Cayman Chemical
Procedure: Purified FABPs were incubated with 11-(dansylamino)undecanoic acid (DAUDA) (FABP3, FABP5) or 8-anilino-1-naphthalenesulfonic acid (ANS) (FABP7) in the presence or absence of FABP inhibitors (.01–200 μM) in the binding assay buffer. FABP4 binding was assessed using a commercially available kit (Cayman Chemical, Ann Arbor). In all cases, arachidonic acid (10 μM) was included to account for maximal probe displacement. Loss of fluorescence intensity was monitored with an F5 Filtermax Multi-Mode Microplate Reader (Molecular Devices, Sunnyvale) using the following excitation and emission wavelengths (DAUDA: ex./em.= 360/535 nm; ANS: ex./em. = 360/465 nm). Following background subtraction, the fluorescence intensity values were normalised and analyzed via a one-site binding model using the GraphPadPrism (version 9.2). Ki values were determined using the following equation: Ki= IC50/(1 + ([Probe]/Kd).

[3] = system: oxaliplatin-induced mechanical allodynia; assay: Prevention of OIPN, paw withdrawal threshold; assay type: in vivo, male Sprague Dawley rats
Procedure: Male Sprague Dawley rats (150–210 g) were housed in groups of 4 in intra-ventilated Perspex home cages. Humidity, temperature (21 ± 1 °C), and lighting (light-dark cycle of 12:12 hours) were controlled and maintained in the home cages, with food and water available ad libitum. Rats acclimatised to the home cages for at least 1 week. All experiments were carried out according to the Animals (Scientific Procedures) Act, 1986 (U.K. Government Home Office). The study was performed under the Home Office project licence number PP0847012. OIPN was established with a single dose of OXA (10 mg/kg, IP).
as §1
Tactile allodynia (primary outcome measure) was assessed using paw withdrawal threshold (PWT), a measure of pain sensitivity. PWT was evaluated using calibrated von-Frey monofilaments (Touch-Test Sensory Evaluator; Scientific Marketing Associates) applied to the plantar surface of the left hind paw. PWT was determined by increasing and decreasing stimulus intensity and estimated using Dixon’s up-down method.[38],[39]
To acquire baseline readings, pain behaviour was assessed on 3 consecutive days (Days −3, −2, −1). The mean of Day −2 and Day −1 was considered the healthy baseline (HBL) prior to OIPN induction. On Days 5 and 6 after OXA injection, thresholds were reassessed. The mean of Days 5 and 6 was considered the neuropathic baseline (NPB). Animals were then ranked and randomised (based on a Latin square design) to treatment groups according to the percentage change of the mean thresholds observed in the NPB compared to the HBL. NPB expressed as a percentage change from HBL was calculated as follows (HBL-NPB)/HBL*100. All behavioural assessment was done by an experimenter blinded to the identity of the treatment. Separate people were responsible for dosing and assessment/data analysis.

T1 sequence (P15090 whole entry, species assumed): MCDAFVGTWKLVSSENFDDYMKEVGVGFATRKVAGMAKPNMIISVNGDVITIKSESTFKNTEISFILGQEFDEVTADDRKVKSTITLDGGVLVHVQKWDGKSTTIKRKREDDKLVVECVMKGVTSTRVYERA

COc1ccccc1[C@@H]1[C@H](C(=O)O)[C@@H](c2ccccc2OC)[C@H]1C(=O)OC1Cc2ccccc2C1 [ART26.12, (+)–3-Indan-2-yloxycarbonyl-2,4-bis(2-methoxyphenyl)cyclobutanecarboxylic acid]
body weight on Day 5 versus Day 0 [1]: significantly higher body weight than Day 0 | Ki [2]: > 100 µM | PWT on Day 5/6 compared to HBL ([3]; 10 mg/kg BID, P < .001): significantly lower PWTs | PWT on Day 5/6 compared to HBL ([3]; 25 mg/kg BID, P < .05): significantly lower PWTs | PWT on Day 14 compared to HBL ([3]; ART26.12 10 or 25 mg/kg BID groups): neither the ART26.12 nor the pregabalin groups showed significant allodynia
